Assays:
[1] = Solubility test of PTCDI compounds (1 mg, solvent added in 1 mL steps, ultrasonic treatment, visual check); assay type: physicochemical; details: for solubility: in chloroform and tetrahydrofuran, judged visually; for solvent [mL] CHCl3: volume of chloroform needed to dissolve 1 mg of compound; for solvent [mL] THF: volume of tetrahydrofuran needed to dissolve 1 mg of compound
Experimental: In this example, a solubility test for a perylenetetracarboxylic diimide (PTCDI) compounds were performed.
First, 1 mg of each of the PTCDJ compounds represented by (a) to (d) were weighed out and added to transparent containers. Next, (1) 1 mL of a solvent was added, and then ultrasonic treatment was performed for 1 minute. After that, (2) whether the PTCDI compounds were dissolved in the solvents was checked visually.
In each PTCDI compound, aforementioned (1) and (2) were repeated until the PTCDI compounds were dissolved in the solvents. When a solution is colored in yellowish-orange and solids of materials disappear, the PTCDI compounds are regarded to be dissolved.

[2] = Calculation of solubility parameter (SP value) by molecular dynamics (LAMMPS); details: calculated SP value against reference SP value of chloroform (approx. 9.4)
From the text: The solubility parameter (SP value) δ can be calculated by Formula (1) shown in the following Formula 1 and Formula (2) shown in the following Formula 2, using a cohesive energy density obtained by a molecular dynamics (MD) method using the interaction between molecules in the molecular assembly.
Note that in the above Formula 1 and Formula 2, NA represents Avogadro's constant, V represents a molar volume of a molecular assembly, Ecoh represents a cohesive energy, Eassembly/number of molecules represents an energy per molecule in an assembly, and Eisolated molecule represents energy of each molecule that constitutes the assembly.
As the energy of the assembly (Eassembly) and the energy of each molecule that constitutes the assembly (Eisolated molecule), a three-dimensional coordinate of a molecule that is calculated using LAMMPS, which is an open source software, can be used.
Specifically, an initial state of the molecular assembly in which molecules are arranged at random is generated, using a single material system of molecules whose SP value σ is intended to be calculated. Next, the energy Eassembly of the assembly is calculated by performing a MD calculation using an NTP ensemble until when the energy and the volume go into an equilibrium state. On the other hand, the energy Eisolated molecule of each molecule that constitutes the assembly is calculated in the following manner: the volume and the shape of each molecule that constitutes the assembly are fixed and sampling is performed by the MD calculation using NVT ensemble. Next, statistical processing and substitution into Formula 1 and Formula 2 are performed, whereby the SP value δ is calculated.
First, the energy Eassembly of the assembly of the PTCDI derivatives is calculated. Specifically, an initial state (also referred to as a liquid model) of the molecular assembly which consists of a single system of 100 PTCDI derivatives (shown above as (a) to (i)) arranged at random, is generated. Next, the MD calculation using the NTP ensemble is performed until the energy and the volume go into an equilibrium state. In the MD calculation, samplings of Step 1 under high-temperature and pressure-rising conditions, Step 2 under high-temperature and pressure-rising conditions, Step 3 under high-temperature and high-pressure conditions, Step 4 under high-temperature and normal-pressure conditions, and Step 5 under normal-temperature and normal-pressure conditions are sequentially performed. The energy Eassembly/number of molecules per molecule of the PTCDI derivative is calculated by dividing the calculated value by 100.
The energy Eassembly of the assembly of the solvent is calculated.
Next, the MD calculation using the NTP ensemble is performed until the energy and the volume go into an equilibrium state. […]

[3] = reference value from a website; cited from earlier work

SMILES | solubility [1] | solvent [mL] CHCl3 [1] | solvent [mL] THF [1] | difference in SP value σ CHCl3 [2] | SP value [3]
CCCCCCCCN1C(=O)c2ccc3c4ccc5c6c(ccc(c7ccc(c2c37)C1=O)c64)C(=O)N(CCCCCCCC)C5=O | improved as compared with that of Me-PTCDI | 55 mL | >100 mL | 1.3 | –
CCCCC(CC)CN1C(=O)c2ccc3c4ccc5c6c(ccc(c7ccc(c2c37)C1=O)c64)C(=O)N(CC(CC)CCCC)C5=O (centres unmarked) | improved as compared with that of PTCDI-C8 | 1 mL | 16 mL | 1.0 | –
CCC(CC)N1C(=O)c2ccc3c4ccc5c6c(ccc(c7ccc(c2c37)C1=O)c64)C(=O)N(C(CC)CC)C5=O [(d) EtPr-PTCDI, 2,9-di(pentan-3-yl)anthra[2,1,9-def:6,5,10-d′e′f]diisoquinoline-1,3,8,10(2H,9H)-tetraone] | extremely favorable | 1 mL | 1 mL | 0.9 | –
CN1C(=O)c2ccc3c4ccc5c6c(ccc(c7ccc(c2c37)C1=O)c64)C(=O)N(C)C5=O | extremely poor | >100 mL | >100 mL | 2.9 | –
ClC(Cl)Cl [chloroform] | – | – | – | – | approximately 9.4 (cal/cm^3)^1/2

Reference: US20240341171A1 (Semiconductor Energy Laboratory Co., Ltd., priority 2021, published 2024)
